5 compounds from patent EP0630897A2, “3-Hydroxy-4-hydroxymethyl-2-methylene-cyclopentyl purines and pyrimidines” (BRISTOL-MYERS SQUIBB COMPANY, priority 1993, dated 1994) can be followed below.

Holding throughout (assay type): cell-based
The nature of series [1]: Visible toxicity to the cell monolayers under the antiviral assay conditions. The conditions noted are these: human, wi-38 cells; concentration at which toxicity was visible. As to the method: (§1) HSV-1, HSV-2, HCMV and VZV antiviral assays: Virus was adsorbed to WI-38 cell culture monolayers in 6 well culture plates (Costar, Cambridge, MA) for 1 hour prior to addition of maintenance medium containing duplicate dilutions of the test compound. Inhibition of plaque development was evaluated on fixed and stained monolayers after 4 days incubation at 37°C. for HSV-1 and HSV-2, and after 5 - 7 days incubation at 37°C. for HCMV and VZV. ID₅₀ values were determined from the drug concentration which conferred at least a 50% plaque reduction compared to virus controls.

Series [2] concerns VZV (varicella zoster virus, strain ELLEN). As to the kind of experiment: Plaque reduction antiviral assay in WI-38 cell culture, VZV. The conditions noted are these: Human alphaherpesvirus 3; WI-38 monolayers, at least 50% plaque reduction, 5 - 7 days incubation at 37°C; read-out: ID50(μM) for the following viruses VZV. As to the method:
as §1, with “Assays were performed in cell culture systems to determine the concentrations of compounds that are effective in preventing several kinds of viral infections. HSV-1 (herpes simplex virus type 1, strain Schooler), HSV-2 (herpes simplex virus type 2, strain 186), VZV (varicella zoster virus, strain ELLEN), HCMV (human cytomegalovirus, strain AD 169). HSV-1,” for “HSV-1,”

Series [3] has as its system HSV-2 (herpes simplex virus type 2, strain 186). As to the kind of experiment: Plaque reduction antiviral assay in WI-38 cell culture, HSV-2. The conditions noted are these: Human alphaherpesvirus 2, 96 h; WI-38 monolayers, at least 50% plaque reduction, 4 days incubation at 37°C; read-out: ID50(μM) for the following viruses HSV-2. As to the method:
as §1, with “Assays were performed in cell culture systems to determine the concentrations of compounds that are effective in preventing several kinds of viral infections. HSV-1 (herpes simplex virus type 1, strain Schooler), HSV-2 (herpes simplex virus type 2, strain 186), VZV (varicella zoster virus, strain ELLEN), HCMV (human cytomegalovirus, strain AD 169). HSV-1,” for “HSV-1,”

Series [4] concerns HSV-1 (herpes simplex virus type 1, strain Schooler). As to the kind of experiment: Plaque reduction antiviral assay in WI-38 cell culture, HSV-1. The conditions noted are these: Human alphaherpesvirus 1, 96 h; WI-38 monolayers, at least 50% plaque reduction, 4 days incubation at 37°C; read-out: ID50(μM) for the following viruses HSV-1. The procedure:
as §1, with “Assays were performed in cell culture systems to determine the concentrations of compounds that are effective in preventing several kinds of viral infections. HSV-1 (herpes simplex virus type 1, strain Schooler), HSV-2 (herpes simplex virus type 2, strain 186), VZV (varicella zoster virus, strain ELLEN), HCMV (human cytomegalovirus, strain AD 169). HSV-1,” for “HSV-1,”

In series [5] the test system is HCMV (human cytomegalovirus, strain AD 169). As to the kind of experiment: Plaque reduction antiviral assay in WI-38 cell culture, HCMV. To be noted: Human betaherpesvirus 5; WI-38 monolayers, at least 50% plaque reduction, 5 - 7 days incubation at 37°C; read-out: ID50(μM) for the following viruses HCMV. The procedure:
as §1, with “Assays were performed in cell culture systems to determine the concentrations of compounds that are effective in preventing several kinds of viral infections. HSV-1 (herpes simplex virus type 1, strain Schooler), HSV-2 (herpes simplex virus type 2, strain 186), VZV (varicella zoster virus, strain ELLEN), HCMV (human cytomegalovirus, strain AD 169). HSV-1,” for “HSV-1,”

Turning to `C=C1C(O)C(CO)CC1n1cnc2c(=O)[nH]c(N)nc21` (stereo not drawn) [Example 1, (1α,3β,4α)-2-Amino-1,9-dihydro-9-[3-hydroxy-4-(hydroxymethyl)-2-methylenecyclopentyl]-6H-purin-6-one], the MCC in series [1] was 361 µM. The IC50 in series [2] was 7 to 18 µM; in series [3] it was 7 to 18 µM; in series [4], 4 to 7 µM; in series [5] it was 7 µM.

For the compound `C=C1C(O)C(CO)CC1n1cnc2c(N)ncnc21` (stereo not drawn) [Example 2, (1α,2β,4α)-4-(6-Amino-9H-purin-9-yl)-2-hydroxy-3-methylenecyclopentanemethanol], the MCC in series [1] is 383 µM. For the same compound, the IC50 in series [2] was greater than 38 µM; in series [3] it was 383 µM; in series [4] it was 383 µM; in series [5], greater than 38 µM.

`C=C1C(O)C(CO)CC1n1cc(C)c(=O)[nH]c1=O` (stereo not drawn) [Example 3, (1α,3β,4α)-1-[3-Hydroxy-4-(hydroxymethyl)-2-methylenecyclopentyl]-5-methyl-2,4(1H,3H)-pyrimidinedione] yielded an MCC in series [1] of 396 µM. Further, the IC50 was 40 µM in series [2], greater than 396 µM in series [3], 100 to 200 µM in series [4] and greater than 396 µM in series [5].

In turn, `C=C1C(O)C(CO)CC1n1cc(I)c(=O)[nH]c1=O` (stereo not drawn) [Example 4, (1α,3β,4α)-1-[3-Hydroxy-4-(hydroxymethyl)-2-methylenecyclopentyl]-5-iodo-2,4(1H,3H)-pyrimidinedione] registered an MCC in series [1] of 275 µM. For the same compound, the IC50 in series [2] was 275 µM; in series [3], greater than 275 µM; in series [4], greater than 275 µM; in series [5] it was 28 to 275 µM.

For `C=C1C(O)C(CO)CC1n1cc(C=CBr)c(=O)[nH]c1=O` (stereo not drawn) [Example 5, [1α(E),3β,4α]-5-[2-Bromoethenyl)-1-[3-hydroxy-4-(hydroxymethyl)-2-methylenecyclopentyl]-2,4-(1H,3H)-pyrimidinedione], the MCC in series [1] came out at 291 µM. For the same compound, the IC50 in series [2] is 1.5 to 3 µM; in series [3], greater than 291 µM; in series [4] it was 291 µM.
